Source: patent publication US5250537A, “5,6,7,8,9,10-hexahydro-7 ,10-iminocyclohept[b]indole,-6,7,8,9,10-hexahydro-7,11-imino-5H-cyclooct[ b]indole and substituted derivatives” (Scios Nova Inc., priority 1992, dated 1993)
Read-outs that look alike come from different tables or passages of the source.

Assays:
dopamine (D-2) receptors = molecular target: T1, dopamine (D-2) receptors (Rattus norvegicus, UniProt P61169); assay: In Vitro Dopamine (D-2) Receptor Binding, [3H]sulpiride; details: read-out: Dopamine D-2 [3H]sulpiride Ki
T1 construct: the corpus striatum was dissected and homogenized; from tissue; host or cells: rat corpus striatum membranes
T1 sequence (P61169 whole entry): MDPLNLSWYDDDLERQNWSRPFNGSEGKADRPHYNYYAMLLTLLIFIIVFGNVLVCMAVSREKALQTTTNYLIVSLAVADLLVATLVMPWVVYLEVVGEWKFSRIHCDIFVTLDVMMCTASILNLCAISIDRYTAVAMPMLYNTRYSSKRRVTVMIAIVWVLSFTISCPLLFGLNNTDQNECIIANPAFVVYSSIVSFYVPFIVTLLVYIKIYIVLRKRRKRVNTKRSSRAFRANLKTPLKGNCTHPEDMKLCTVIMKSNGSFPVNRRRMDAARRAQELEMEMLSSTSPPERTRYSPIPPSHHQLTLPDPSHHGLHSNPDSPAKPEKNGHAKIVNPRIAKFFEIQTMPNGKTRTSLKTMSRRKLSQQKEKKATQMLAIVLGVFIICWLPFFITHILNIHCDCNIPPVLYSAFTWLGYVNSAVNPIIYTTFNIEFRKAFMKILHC
Description: On the day of assay, rats were sacrificed by decapitation, the corpus striatum was dissected and homogenized in 20 volumes of ice-cold 50 mM Tris HCl (pH 7.5, 25° C.). The homogenate was centrifuged (4° C.) at 48,000×g for 10 minutes and the resulting pellet was resuspended in 20 volumes of fresh buffer and recentrifuged. […] A portion of the suspension (800 μL) was added in triplicate to tubes containing 3 nM [^3 H]sulpiride and the test compound. The final assay volume was 1 mL; haloperidol (10 μM) was used to determine non-specific binding. Following a 60 minute incubation at 25° C., the reactions were terminated by rapid filtration over Whatman GF/B filters which had been pretreated in a solution of 0.3% (w/v) of aqueous polyethylenimine. Filters were washed three times using 5 mL of ice-cold buffer and processed using standard procedures to determine radioactivity. IC50 values were obtained from concentration-response curves in which a number of concentrations of test compound were examined. Ki values were determined using the Cheng-Prusoff equation.

[1] = molecular target: T2, serotonin 5-HT2 receptors (Rattus norvegicus, UniProt P14842); assay: In Vitro Serotonin (5-HT2) Receptor Binding, [3H]ketanserin; details: for Ki: rat cortical membranes, 1 nM [3H]ketanserin
T2 construct: Rat cortical synaptosomal membranes were prepared on the day of assay; from tissue; host or cells: rat frontal cortex synaptosomal membranes
T2 sequence (P14842 whole entry): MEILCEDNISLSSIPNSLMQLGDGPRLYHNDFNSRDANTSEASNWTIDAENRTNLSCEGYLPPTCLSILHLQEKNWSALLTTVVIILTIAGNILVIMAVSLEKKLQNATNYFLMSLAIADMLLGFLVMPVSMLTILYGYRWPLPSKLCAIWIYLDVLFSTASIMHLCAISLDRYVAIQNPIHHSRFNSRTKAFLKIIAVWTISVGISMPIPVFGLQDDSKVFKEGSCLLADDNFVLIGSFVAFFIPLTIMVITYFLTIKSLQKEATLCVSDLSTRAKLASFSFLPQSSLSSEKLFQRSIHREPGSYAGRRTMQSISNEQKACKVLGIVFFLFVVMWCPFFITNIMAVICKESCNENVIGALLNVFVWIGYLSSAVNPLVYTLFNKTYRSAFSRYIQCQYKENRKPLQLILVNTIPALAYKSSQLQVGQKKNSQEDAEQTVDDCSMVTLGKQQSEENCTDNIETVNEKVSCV
Description: The potency of compounds to inhibit the specific binding of [^3 H]ketanserin (84.2 Ci/mM) to serotonin 5-HT2 receptors was determined as detailed previously [J. E. Leysen, C. J. E. Niemegers, J. M. Van Neuten and P. M. Laduron, Mol. Pharmacol., 21, 301-314 (1982)]. Rat cortical synaptosomal membranes were prepared on the day of assay. Animals were sacrified by decapitation, the frontal cortex was removed and homogenized in 10 volumes (w/v) of ice-cold 0.32M sucrose using a motor driven teflon pestle fitted to a glass tube. The synaptosomal pellet was suspended in 50 mM Tris HCl (pH 7.6 at 25° C.) to a concentration of 7.5 mg original wet weight/mL. For the binding reaction, 400 μL of this tissue suspension was added to polypropylene tubes containing 50 mM Tris HCl and [^3 H]ketanserin (final concentration of 1 nM) in a final assay volume of 0.5 mL. Following a 15 minute incubation at 37° C., the binding reaction was terminated by rapid vacuum filtration over Whatman GF/B filters (presoaked in 0.1% PEI) followed by 3×4 mL washes with ice cold 50 mM Tris HCl. Nonspecific binding was assessed in the presence of 10 μM methysergide. All incubations were performed in triplicate. IC50 values were determined using log logit analysis.

[2] = molecular target: sigma receptor ([3H]DTG site); assay: In Vitro Sigma Receptor Binding, [3H]DTG; details: guinea pig brain; 45 minutes at 25° C.
Description: (§1) For both assays frozen guinea pig brains (PelFreez Biologicals, Rogers, AK) were thawed and homogenized in 10 volumes (w/v) of ice cold 0.32M sucrose using 10 strokes of a motor-drivenglass-fitted teflon pestle adjusted to 600 rpm. The homogenate was centrifuged (4° C.) at 900× g for 10 minutes and the resultant supernatant collected and centrifuged at 22,000×g for 20 minutes. The pellet obtained from the centrifugation was resuspended in 10 volumes of 50 mM Tris HCl (pH 7.4, 25° C.) and incubated for 30 minutes at 37° C. Following the preincubation, the homogenate was centrifuted at 22,000×g for 20 minutes and the final pellet was resuspended in buffer to a protein concentration of 0.5-1.0 mg/mL for use in the assay.
(§2) Binding reactions were initiated by the addition of tissue (800 μL) to tubes containing assay buffer, the radioligand (final concentration 1-3 nM) and the compound of interest. Haloperidol (10 μM) and (+)-3-PPP (10 μM) were used to determine the levels of […] [^3 H]DTG and [^3 H](+)PPP binding, respectively. Final assay volume was 1 mL. Reactions were allowed to proceed for 45 minutes at 25° C. and terminated by rapid filtration over Whatman GF/B filters which were washed 3 times with 5 mL of cold buffer. Radioactivity trapped on the filters was determined using routine methods. […] All assays were performed using triplicate determinations. For comparison purposes, IC50 values are reported rather than Ki values.

[3] = molecular target: T3, sigma receptor ([3H](+)-3-PPP site) (Cavia porcellus, UniProt Q60492); assay: In Vitro Sigma Receptor Binding, [3H](+)-3-PPP; design: species or system guinea pig; details: guinea pig brain; 45 minutes at 25° C.; read-out: Sigma [3H](+)-3-PPP binding IC50
T3 construct: frozen guinea pig brains; tissue PelFreez Biologicals, Rogers, AK; host or cells: guinea pig brain membranes
T3 sequence (Q60492 whole entry): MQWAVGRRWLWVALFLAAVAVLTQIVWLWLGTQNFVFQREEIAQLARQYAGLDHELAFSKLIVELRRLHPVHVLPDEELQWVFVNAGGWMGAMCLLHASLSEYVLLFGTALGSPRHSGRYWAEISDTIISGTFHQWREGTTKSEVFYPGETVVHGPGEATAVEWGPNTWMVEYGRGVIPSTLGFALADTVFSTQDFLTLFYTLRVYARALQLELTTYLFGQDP
Description: as §1, §2

[4] = rat corpus striatum, 3 nM [3H]sulpiride
[5] = read-out: Serotonin 5-HT2 [3H]ketanserin, % @ 1 μM
[6] = read-out: Serotonin 5-HT2 [3H]ketanserin, value @ 1 μM

SMILES | Ki (dopamine (D-2) receptors; [4]) [nM] | inhibition at 1 µM [1, 5] [%] | IC50 [2] [nM] | IC50 [3] [nM] | Ki [1] [nM] | inhibition at 1 µM [1, 6] [%] | Ki (dopamine (D-2) receptors) [nM]
c1ccc(CN2C3CCC2c2c([nH]c4ccccc24)C3)cc1 (stereo not drawn) [1 H H CH2 Ph 2] | 3650 | 22.4 | – | – | – | – | –
C(=C\c1ccccc1)/CN1C2CCC1c1c([nH]c3ccccc13)C2 (stereo not drawn) [1 H H E-CH2 CHCH Ph 2] | 2460 | 36.6 | – | – | – | – | –
O=C(CCCN1C2CCC1c1c(n(-c3ccccc3)c3ccccc13)C2)c1ccc(F)cc1 (stereo not drawn) [2 H Ph (CH2)3 CO 4-FPh 2] | 840 | – | 528 | 510 | 814 | – | –
CN1C2CCC1c1c([nH]c3ccccc13)C2 (stereo not drawn) [3 H H -- CH3 2] | 16700 ± 6000 | 26.4 | – | – | – | – | –
Fc1ccc2[nH]c3c(c2c1)C1CCC(C3)N1CCCc1cccnc1 (stereo not drawn) [4 F H (CH2)3 3-pyridyl 2] | 12200 ± 4700 | 0 | – | – | – | – | –
O=C(CCCN1C2CCC1c1c([nH]c3ccc(F)cc13)C2)c1ccc(F)cc1 (stereo not drawn) [4 F H (CH2)3 CO 4-FPh 2] | – | – | 55 | 408 | 2.07 | – | –
OCCCN1C2CCC1c1c([nH]c3ccc(F)cc13)C2 (stereo not drawn) [4 F H (CH2)3 OH 2] | 37300 | – | 317 ± 49 | 1380 ± 188 | – | 5.6 | –
Fc1ccc2[nH]c3c(c2c1)C1CCC(C3)N1CCCCc1ccccc1 (stereo not drawn) [4 F H (CH2)4 Ph 2] | – | – | – | – | 74 | – | 770
Fc1ccc2[nH]c3c(c2c1)C1CCC(C3)N1 (stereo not drawn) [4 F H -- H 2] | 36600 | 28.2 | – | – | – | – | –
Fc1ccc2[nH]c3c(c2c1)C1CCC(C3)N1Cc1ccccc1I (stereo not drawn) [4 F H CH2 2-IPh 2] | 531000 | 0 | – | – | – | – | –
Fc1ccc2[nH]c3c(c2c1)C1CCC(C3)N1Cc1ccccc1 (stereo not drawn) [4 F H CH2 Ph 2] | 3740 | 3.3 | 86 ± 14 | 908 ± 222 | – | – | –
CC(C)n1c2c(c3ccccc31)C1CCC(C2)N1CCCCc1ccccc1 (stereo not drawn) [5 H 2-Pr (CH2)4 Ph 2] | 2640 ± 270 | 46 | 231 | 705 ± 20 | – | – | –
c1ccc(CCN2C3CCC2c2c(n(Cc4ccccc4)c4ccccc24)C3)cc1 (stereo not drawn) [5 H Bn (CH2)2 Ph 2] | 1620 | 23.3 | – | – | – | – | –
c1ccc(CCCCN2C3CCC2c2c(n(Cc4ccccc4)c4ccccc24)C3)cc1 (stereo not drawn) [5 H Bn (CH2)4 Ph 2] | 1830 | – | 267 ± 87 | 396 ± 92 | 506 | – | –
Cn1c2c(c3ccccc31)C1CCC(C2)N1CCCCc1ccccc1 (stereo not drawn) [5 H CH3 (CH2)4 Ph 2] | 1820 ± 80 | 49 | – | – | – | – | –
O=C1c2ccccc2C(=O)N1CCN1C2CCC1c1c([nH]c3ccccc13)C2 (stereo not drawn) [6 H H (CH2)2 2-phthalimido 2] | 52100 | – | – | – | – | 5.3 | –
Fc1ccc2[nH]c3c(c2c1)C1CCC(C3)N1CCCN1Cc2ccccc2C1 (stereo not drawn) [7 F H (CH2)3 2-isoindolinyl 2] | 1780 ± 630 | – | – | – | – | 72.2 | –
c1ccc2c(c1)CN(CCN1C3CCC1c1c([nH]c4ccccc14)C3)C2 (stereo not drawn) [7 H H (CH2)2 2-isoindolinyl 2] | 2200 ± 180 | – | – | – | – | 55.1 | –
Clc1ccc(OCCN2C3CCC2c2c([nH]c4ccccc24)C3)cc1Cl (stereo not drawn) [7 H H (CH2)2 O-3,4-Cl2 Ph 2] | 650 | 48.9 | – | – | – | – | –
CN(CCc1ccc(Cl)c(Cl)c1)CCN1C2CCC1c1c([nH]c3ccccc13)C2 (stereo not drawn) [9 H H (CH2)2 N(CH3)CH2 CH2-3,4-Cl2 Ph 2] | 2530 ± 160 | – | – | – | – | 34.7 | –
